Test results published in PubChem BioAssay AID258 (DTP/NCI, 2004).
Several values for one entry are separate records, joined by “and”; a condition that tells them apart may be missing. Equal values may be shown once. Inconclusive results and toxic doses are left out.

System: CD2F1 mice, L1210 leukemia sc, survival T/C
Assay: NCI In Vivo Anticancer Drug Screen. Data for tumor model L1210 Leukemia (subcutaneous) in CD2F1 (CDF1) mice
Details: endpoint: median survival time, higher = longer survival
Protocol: The antitumor activity of compounds was measured in mice bearing transplantable tumors. Survival or tumor size were measured and the results are expressed as the measurement made in the treated group (T) divided by the measurement made in the vehicle treated control group (C). The tumor model used in this assay is L1210 Leukemia (subcutaneous) in CD2F1 (CDF1) mice

## Nc1ncnc2c1ccn2C1OC(CO)C(O)C1O (stereo not given)
dose: 0.25 mg/kg/injection, schedule: Q01DX009 (ip), vehicle: Klucel (hydroxypropylcellulose) (HPC)
  T/C: 102 % of control
dose: 0.5 mg/kg/injection, schedule: Q01DX009 (ip), vehicle: Klucel (hydroxypropylcellulose) (HPC)
  T/C: 97 % of control
dose: 1.0 mg/kg/injection, schedule: Q01DX009 (ip), vehicle: Klucel (hydroxypropylcellulose) (HPC)
  T/C: 92 % of control
dose: 2.0 mg/kg/injection, schedule: Q01DX009 (ip), vehicle: Klucel (hydroxypropylcellulose) (HPC)
  T/C: 95 % of control
dose: 4.0 mg/kg/injection, schedule: Q01DX009 (ip), vehicle: Klucel (hydroxypropylcellulose) (HPC)
  T/C: 97 % of control
dose: 8.0 mg/kg/injection, schedule: Q01DX009 (ip), vehicle: Klucel (hydroxypropylcellulose) (HPC)
  T/C: 102 % of control
dose: 16.0 mg/kg/injection, schedule: Q01DX009 (ip), vehicle: Klucel (hydroxypropylcellulose) (HPC)
  T/C: 101 % of control

## Nc1nc(N)c2[nH]cnc2n1
dose: 20.0 mg/kg/injection, schedule: Q01DX Z (sc), vehicle: steriod suspending solution
  T/C: 106 % of control
dose: 40.0 mg/kg/injection, schedule: Q01DX Z (sc), vehicle: steriod suspending solution
  T/C: 100 % of control
dose: 80.0 mg/kg/injection, schedule: Q01DX Z (sc), vehicle: steriod suspending solution
  T/C: 100 % of control
dose: 160.0 mg/kg/injection, schedule: Q01DX Z (sc), vehicle: steriod suspending solution
  T/C: 100 % of control

## Cc1c(N)nc([C@H](CC(N)=O)NC[C@H](N)C(N)=O)nc1C(=O)N[C@H](C(=O)N[C@H](C)[C@@H](O)[C@H](C)C(=O)N[C@H](C(=O)NCCc1nc(-c2nc(C(=O)NCCC[S+](C)C)cs2)cs1)[C@@H](C)O)C(OC1OC(CO)C(O)C(O)C1OC1OC(CO)C(O)C(OC(N)=O)C1O)c1cnc[nH]1 (stereo not given in full)
dose: 1.0 mg/kg/injection, schedule: Q01DX009 (ip), vehicle: saline
  T/C: 100 % of control
dose: 2.0 mg/kg/injection, schedule: Q01DX009 (ip), vehicle: saline
  T/C: 100 % of control and 101 % of control and 107 % of control
dose: 2.0 mg/kg/injection, schedule: Q01DX009 (sc), vehicle: saline
  T/C: 110 % of control
dose: 4.0 mg/kg/injection, schedule: Q01DX009 (ip), vehicle: saline
  T/C: 100 % of control and 105 % of control and 109 % of control
dose: 4.0 mg/kg/injection, schedule: Q01DX009 (sc), vehicle: saline
  T/C: 102 % of control
dose: 8.0 mg/kg/injection, schedule: Q01DX009 (ip), vehicle: saline
  T/C: 100 % of control and 107 % of control and 109 % of control
dose: 8.0 mg/kg/injection, schedule: Q01DX009 (sc), vehicle: saline
  T/C: 102 % of control
dose: 16.0 mg/kg/injection, schedule: Q01DX009 (ip), vehicle: saline
  T/C: 104 % of control and 107 % of control and 112 % of control
dose: 16.0 mg/kg/injection, schedule: Q01DX009 (sc), vehicle: saline
  T/C: 106 % of control
dose: 32.0 mg/kg/injection, schedule: Q01DX009 (ip), vehicle: saline
  T/C: 102 % of control and 109 % of control and 112 % of control
dose: 32.0 mg/kg/injection, schedule: Q01DX009 (sc), vehicle: saline
  T/C: 100 % of control
dose: 64.0 mg/kg/injection, schedule: Q01DX009 (ip), vehicle: saline
  T/C: 112 % of control

## COc1ccc2c(c1OC)C(=O)O[C@@H]2[C@H]1c2c(cc3c(c2OC)OCO3)CCN1C
dose: 14.0 mg/kg/injection, schedule: Q01DX Z (sc), vehicle: water
  T/C: 100 % of control
dose: 23.0 mg/kg/injection, schedule: Q01DX Z (sc), vehicle: water
  T/C: 100 % of control
dose: 39.0 mg/kg/injection, schedule: Q01DX Z (sc), vehicle: water
  T/C: 100 % of control
dose: 65.0 mg/kg/injection, schedule: Q01DX Z (sc), vehicle: water
  T/C: 100 % of control
dose: 108.0 mg/kg/injection, schedule: Q01DX Z (sc), vehicle: water
  T/C: 100 % of control
dose: 180.0 mg/kg/injection, schedule: Q01DX Z (sc), vehicle: water
  T/C: 100 % of control
dose: 300.0 mg/kg/injection, schedule: Q01DX Z (sc), vehicle: water
  T/C: 100 % of control
dose: 500.0 mg/kg/injection, schedule: Q01DX Z (sc), vehicle: water
  T/C: 100 % of control

## CCOC(=O)C(CC(C)C)NC(=O)C(Cc1ccc(N(CCCl)CCCl)cc1)NC(C)=O (stereo not given)
dose: 1.0 mg/kg/injection, schedule: Q01DX009 (sc), vehicle: Klucel (hydroxypropylcellulose) (HPC)
  T/C: 102 % of control and 103 % of control
dose: 2.0 mg/kg/injection, schedule: Q01DX009 (sc), vehicle: Klucel (hydroxypropylcellulose) (HPC)
  T/C: 103 % of control and 98 % of control
dose: 4.0 mg/kg/injection, schedule: Q01DX009 (sc), vehicle: Klucel (hydroxypropylcellulose) (HPC)
  T/C: 104 % of control and 105 % of control
dose: 8.0 mg/kg/injection, schedule: Q01DX009 (sc), vehicle: Klucel (hydroxypropylcellulose) (HPC)
  T/C: 107 % of control and 98 % of control
dose: 16.0 mg/kg/injection, schedule: Q01DX009 (sc), vehicle: Klucel (hydroxypropylcellulose) (HPC)
  T/C: 103 % of control and 109 % of control
dose: 28.5 mg/kg/injection, schedule: Q01DX009 (sc), vehicle: Klucel (hydroxypropylcellulose) (HPC)
  T/C: 110 % of control
dose: 32.0 mg/kg/injection, schedule: Q01DX009 (sc), vehicle: Klucel (hydroxypropylcellulose) (HPC)
  T/C: 100 % of control and 112 % of control
dose: 42.7 mg/kg/injection, schedule: Q01DX009 (sc), vehicle: Klucel (hydroxypropylcellulose) (HPC)
  T/C: 121 % of control
dose: 64.0 mg/kg/injection, schedule: Q01DX009 (sc), vehicle: Klucel (hydroxypropylcellulose) (HPC)
  T/C: 118 % of control and 124 % of control
dose: 113.8 mg/kg/injection, schedule: Q01DX009 (sc), vehicle: Klucel (hydroxypropylcellulose) (HPC)
  T/C: 113 % of control
dose: 128.0 mg/kg/injection, schedule: Q01DX009 (sc), vehicle: Klucel (hydroxypropylcellulose) (HPC)
  T/C: 113 % of control and 122 % of control
dose: 170.7 mg/kg/injection, schedule: Q01DX009 (sc), vehicle: Klucel (hydroxypropylcellulose) (HPC)
  T/C: 120 % of control
dose: 384.0 mg/kg/injection, schedule: Q01DX009 (sc), vehicle: Klucel (hydroxypropylcellulose) (HPC)
  T/C: 158 % of control

## NC(=O)c1ncn2c(=O)n(CCCl)nnc12
dose: 1.56 mg/kg/injection, schedule: Q01DX009 (ip), vehicle: suspension in saline
  T/C: 123 % of control
dose: 6.25 mg/kg/injection, schedule: Q01DX009 (ip), vehicle: suspension in saline
  T/C: 195 % of control
dose: 12.5 mg/kg/injection, schedule: Q01DX009 (ip), vehicle: suspension in saline
  T/C: 309 % of control
dose: 25.0 mg/kg/injection, schedule: Q01DX009 (ip), vehicle: suspension in saline
  T/C: 206 % of control
dose: 50.0 mg/kg/injection, schedule: Q01DX009 (ip), vehicle: suspension in saline
  T/C: 100 % of control

## O=NNc1cnccn1
dose: 8.6 mg/kg/injection, schedule: Q01DX009 (ip), vehicle: water
  T/C: 96 % of control
dose: 14.4 mg/kg/injection, schedule: Q01DX009 (ip), vehicle: water
  T/C: 104 % of control
dose: 24.0 mg/kg/injection, schedule: Q01DX009 (ip), vehicle: water
  T/C: 100 % of control
dose: 66.66 mg/kg/injection, schedule: Q01DX009 (ip), vehicle: water
  T/C: 95 % of control
dose: 66.67 mg/kg/injection, schedule: Q01DX009 (ip), vehicle: water
  T/C: 120 % of control

## CSc1nc2[nH]cnc(=S)c2[nH]1
dose: 23.0 mg/kg/injection, schedule: Q01DX Z (sc), vehicle: methylcellulose (MC)
  T/C: 90 % of control
dose: 39.0 mg/kg/injection, schedule: Q01DX Z (sc), vehicle: methylcellulose (MC)
  T/C: 100 % of control
dose: 65.0 mg/kg/injection, schedule: Q01DX Z (sc), vehicle: methylcellulose (MC)
  T/C: 100 % of control
dose: 108.0 mg/kg/injection, schedule: Q01DX Z (sc), vehicle: methylcellulose (MC)
  T/C: 100 % of control
dose: 180.0 mg/kg/injection, schedule: Q01DX Z (sc), vehicle: methylcellulose (MC)
  T/C: 100 % of control
dose: 300.0 mg/kg/injection, schedule: Q01DX Z (sc), vehicle: methylcellulose (MC)
  T/C: 100 % of control
